Article PMC3583342 (Clinical pharmacology and therapeutics, 2008)
Several values for one entry are separate records, joined by “and”; a condition that tells them apart may be missing. Equal values may be shown once. Read-outs that look alike come from different tables or passages of the source.

Key:
[1] = test system: dark-adapted pupil diameter (miosis); experiment: Methadone pharmacodynamics: dark-adapted pupil diameter change; assay type: in vivo, human; settings: for Maximum miosis / AUEC0-∞: mean ± SD, n=11; for AUEC0-∞: miosis
[2] = human, in vivo, po
[3] = cited from earlier work
P-gp = settings: oral fexofenadine P-gp probe, cited from earlier work
Oral = settings: human, in vivo, 11.2 mg; for AUC(0-t): AUC0-96, oral d5-methadone HCl 11.2 mg; for AUC(0-t) / AUC(0-inf) / Cmax: mean ± SD, n=12; for AUC(0-inf): AUC0-∞; for AUC(0-inf) / Cmax / Tmax: oral d5-methadone HCl 11.2 mg; for Tmax: median (range)
Intravenous = settings: human, in vivo, 6 mg, mean ± SD, n=12; for AUC(0-t): AUC0-96, IV methadone HCl 6.0 mg; for AUC(0-inf): AUC0-∞
[4] = 6.0 mg IV plus 11.2 mg oral methadone HCl
[5] = 6.0 mg IV plus 11.2 mg oral methadone HCl, acute ritonavir
[6] = 6.0 mg IV plus 11.2 mg oral methadone HCl, control
[7] = 6.0 mg IV plus 11.2 mg oral methadone HCl, steady-state ritonavir

## CCC(=O)C(CC(C)N(C)C)(c1ccccc1)c1ccccc1 (stereo not shown) [methadone]
[1]; [4]
  time at which miosis was first detectable (first time point): 2 min
  time of peak miosis effects: 5 to 10 min
[1]; [5]
  Maximum miosis: 5.1 ± 1.0 mm
  AUEC0-∞: 135 ± 61 mm•hr
[1]; [6]
  Maximum miosis: 4.3 ± 1.2 mm
  AUEC0-∞: 117 ± 61 mm•hr
[1]; [7]
  Maximum miosis: 4.2 ± 0.6 mm
  AUEC0-∞: 91 ± 46 mm•hr
[1]; in vivo
  Emax: 3.0 ± 0.2 mm and 4.2 ± 0.2 ^b mm and 3.3 ± 0.1 ^c mm
[2]
  time of second plasma concentration peak: 3 to 4 h
[3]; 100mg ritonavir alone for 7d
  effect on plasma racemic methadone Cmax and AUC0-24: no effect
[3]; patients on stable methadone doses, no withdrawal symptoms
  decreases in methadone plasma concentrations after ritonavir initiation: 30-50%

## CC(C)c1nc(CN(C)C(=O)N[C@H](C(=O)N[C@@H](Cc2ccccc2)C[C@H](O)[C@H](Cc2ccccc2)NC(=O)OCc2cncs2)C(C)C)cs1 [ritonavir]
P-gp; acute ritonavir
  increase in fexofenadine plasma AUC: 2.8 fold
P-gp; steady-state ritonavir
  increase in fexofenadine plasma AUC: 1.4 fold

## CCC(=O)C(C[C@H](C)N(C)C)(c1ccccc1)c1ccccc1 [S-methadone]
Oral; acute ritonavir
  AUC(0-t): 336 ± 170 ng·h/mL
  AUC(0-inf): 388 ± 233 ng·h/mL
  Cmax: 13 ± 6 ng/mL
  Tmax: 4 h
Oral; control
  AUC(0-t): 580 ± 253 ng·h/mL
  AUC(0-inf): 672 ± 335 ng·h/mL
  Cmax: 21 ± 8 ng/mL
  Tmax: 2 h
Oral; steady-state ritonavir
  AUC(0-t): 308 ± 161 ng·h/mL
  AUC(0-inf): 340 ± 205 ng·h/mL
  Tmax: 4 h
Intravenous; acute ritonavir
  AUC(0-t): 215 ± 93 ng·h/mL
Intravenous; control
  AUC(0-t): 379 ± 164 ng·h/mL
Intravenous; steady-state ritonavir
  AUC(0-t): 187 ± 107 ng·h/mL
Intravenous; IV methadone HCl 6.0 mg, acute ritonavir
  AUC(0-inf): 241 ± 120 ng·h/mL
Intravenous; IV methadone HCl 6.0 mg, steady-state ritonavir
  AUC(0-inf): 211 ± 129 ng·h/mL
Intravenous; Cmax, IV methadone HCl 6.0 mg, steady-state ritonavir
  Cmax: 57 ± 29 ng/mL
